Assay results taken from patent US20220125745A1, “PHARMACEUTICAL COMPOSITION FOR CO-ADMINISTRATION OF ACIDOSIS-INDUCING DRUG” (HAIM BIO CO., LTD., priority 2018, published 2022).
Where two headings read alike, the source gives them in different places.

Experiments:
[1] = test system: A549 cells (cancer cells); experiment: Lactate assay (luminescence) in A549 cells, candidate substance alone or combined with a substance that causes lactic acidosis; assay type: cell-based; settings: for activity at 50 µM: Homo sapiens
Procedure: (§1) To identify the effects of administration of the candidate substances for lactic acidosis treatment as described in Example 1 in combination with the above-mentioned substances that cause lactic acidosis, A549 cells (cancer cells) or L132 cells (normal cells) were respectively seeded in 96- or 24-well plates at a concentration of 1×10^4 or 3×10^5 cells/well, and incubation was performed overnight. Administration of the candidate substance for acidosis treatment in combination with the substance that causes lactic acidosis was performed and incubation was further performed for 24 hours. For the candidate substances for acidosis treatment, each substance was administered at a uniform concentration of 50 μM; and for the substances that cause lactic acidosis, metformin was administered at 1 to 100 μM, isoniazid was administered at 1 to 500 μM, berberine was administered at 10 μM, linezolid was administered at 200 μM, and phenformin was administered at 100 μM. All substances were dissolved in dimethyl sulfoxide (DMSO, Sigma-Aldrich Corporation, St. Louis, Mo., USA), and the substances to be administered in combination were administered simultaneously. Subsequently, 50 μl of the cell culture solution obtained by being diluted with Dulbecco's Phosphate-Buffered Saline (DPBS; Wellgene, Korea), and 50 μl of the lactate assay reaction buffer (Promega, Madison, Wis., USA) were mixed and the mixture was added in a 96-well plate. Reaction was allowed to proceed at room temperature for 1 hour. Then, luminescence was measured with a spectrophotometer (Synergy HTX Multi-Reader; BioTek, Winooski, Vt., USA). At the same time, the number of cells in each sample was measured with a cell viability analysis kit (Cell Counting Kit-8; Dojindo Molecular Technologies, Inc., Kumamoto, Japan), and calculation was performed so that the lactic acid measurement value in each sample could be compared with that in the negative control for the same number of cells.

[2] = test system: L132 cells (normal cells); experiment: Lactate assay (luminescence) in L132 cells, candidate substance alone or combined with a substance that causes lactic acidosis; assay type: cell-based; settings: for activity at 50 µM: Homo sapiens
Procedure: as §1

[3] = A549, candidate 50 μM + berberine 10 μM, relative to berberine alone (PC)
[4] = A549, candidate 50 μM + linezolid 200 μM, relative to linezolid alone (PC)
[5] = A549, candidate 50 μM + phenformin 100 μM, relative to phenformin alone (PC)
[6] = A549, 24 h, read-out: Luminescence intensity (%), Berberine (10 μM) −
[7] = A549, 24 h, read-out: Luminescence intensity (%), Linezolid (200 μM) −
[8] = A549, 24 h, read-out: Luminescence intensity (%), Phenformin (100 μM) −
[9] = L132, 24 h, read-out: Luminescence intensity (%), Berberine (10 μM) −
[10] = L132, 24 h, read-out: Luminescence intensity (%), Linezolid (200 μM) −
[11] = L132, 24 h, read-out: Luminescence intensity (%), Phenformin (100 μM) −
[12] = L132, candidate 50 μM + berberine 10 μM, relative to berberine alone (PC)
[13] = L132, candidate 50 μM + linezolid 200 μM, relative to linezolid alone (PC)
[14] = L132, candidate 50 μM + phenformin 100 μM, relative to phenformin alone (PC)
[15] = A549, candidate 50 μM alone, no berberine, 24 h, vs negative control, mean ± SEM, read-out: Luminescence intensity (%), Berberine (10 μM) −
[16] = A549, candidate 50 μM alone, no linezolid, 24 h, vs negative control, mean ± SEM, read-out: Luminescence intensity (%), Linezolid (200 μM) −
[17] = A549, candidate 50 μM alone, no phenformin, 24 h, vs negative control, mean ± SEM, read-out: Luminescence intensity (%), Phenformin (100 μM) −
[18] = L132, candidate 50 μM alone, no berberine, 24 h, vs negative control, mean ± SEM, read-out: Luminescence intensity (%), Berberine (10 μM) −
[19] = L132, candidate 50 μM alone, no linezolid, 24 h, vs negative control, mean ± SEM, read-out: Luminescence intensity (%), Linezolid (200 μM) −
[20] = L132, candidate 50 μM alone, no phenformin, 24 h, vs negative control, mean ± SEM, read-out: Luminescence intensity (%), Phenformin (100 μM) −

Row | Compound | Lactic acid value vs. PC (%) [1, 3] [%] | Lactic acid-decreasing rate vs. PC (%) [1, 3] [%] | Lactic acid value vs. PC (%) [1, 4] [%] | Lactic acid-decreasing rate vs. PC (%) [1, 4] [%] | Lactic acid value vs. PC (%) [1, 5] [%] | Lactic acid-decreasing rate vs. PC (%) [1, 5] [%] | activity at 50 µM [1, 6] [%] | activity at 50 µM [1, 7] [%] | Lactic acid value vs. PC (%) [2, 12] [%] | Lactic acid-decreasing rate vs. PC (%) [2, 12] [%] | Lactic acid value vs. PC (%) [2, 13] [%] | Lactic acid-decreasing rate vs. PC (%) [2, 13] [%] | Lactic acid value vs. PC (%) [2, 14] [%] | Lactic acid-decreasing rate vs. PC (%) [2, 14] [%] | activity at 50 µM [1, 15] [%] | activity at 50 µM [1, 16] [%] | activity at 50 µM [1, 17] [%] | activity at 50 µM [2, 18] [%] | activity at 50 µM [2, 19] [%] | activity at 50 µM [2, 20] [%] | also measured
1 | O=c1c(-c2ccc(O)cc2)coc2cc(O[C@@H]3O[C@H](CO)[C@@H](O)[C@H](O)[C@H]3O)ccc12 [Daidzin] | 92.49 | 7.51 | 82.45 | 17.55 | 99.76 | 0.24 | 97.4 ± 1.1 | 97.4 ± 1.1 | 95.94 | 4.06 | 87.80 | 12.20 | 98.19 | 1.81 | – | – | – | – | – | – | activity at 50 µM [1, 8]: 97.4 ± 1.1%; activity at 50 µM [2, 9]: 92 ± 1.14%; activity at 50 µM [2, 10]: 92 ± 1.14%; activity at 50 µM [2, 11]: 92 ± 1.14%
2 | CCN(CC)C(=S)SSC(=S)N(CC)CC [Disulfiram] | 75.67 | 24.33 | 80.93 | 19.07 | 90.83 | 9.17 | – | – | 69.16 | 30.84 | 87.16 | 12.84 | 78.21 | 21.79 | 86.1 ± 1.66 | 86.1 ± 1.66 | 86.1 ± 1.66 | 93.4 ± 2.64 | 93.4 ± 2.64 | 93.4 ± 2.64 | Luminescence intensity (%), Linezolid (200 μM) − ([2]; L132, candidate 50 μM alone, no linezolid, 24 h, vs negative control, mean ± SEM): 93.39 ± 2.64 %
3 | Cc1cc2c(C(C)C)c(O)c(O)c(C=O)c2c(O)c1-c1c(C)cc2c(C(C)C)c(O)c(O)c(C=O)c2c1O [Gossypol] | 62.63 | 37.37 | 67.86 | 32.14 | 67.24 | 32.76 | 87.6 ± 1.87 | 87.6 ± 1.87 | 50.96 | 49.04 | 67.84 | 32.16 | 51.58 | 48.42 | – | – | – | – | – | – | activity at 50 µM [1, 8]: 87.6 ± 1.87%; activity at 50 µM [2, 9]: 84.3 ± 2.9%; activity at 50 µM [2, 10]: 84.3 ± 2.9%; activity at 50 µM [2, 11]: 84.3 ± 2.9%
4 | O=C(O)c1cc(=O)c2ccccc2[nH]1 [Kynurenic acid] | 101.87 | −1.87 | 91.54 | 8.46 | 92.58 | 7.42 | – | – | 90.59 | 9.41 | 93.53 | 6.47 | 91.70 | 8.30 | 93.9 ± 1.1 | 93.9 ± 1.1 | 93.9 ± 1.1 | 93.7 ± 1.3 | 93.7 ± 1.3 | 93.7 ± 1.3 | –
5 | CCSC(=O)N1CCCCCC1 [Molinate] | 105.78 | −5.78 | 105.88 | −5.88 | 91.13 | 8.87 | – | – | 105.04 | −5.04 | 125.68 | −25.68 | 99.16 | 0.84 | 110 ± 1.91 | 110 ± 1.91 | 110 ± 1.91 | 155 ± 3.38 | 155 ± 3.3 | 155 ± 3.38 | –
